≈ marks a conversion by molar mass, not a printed value.
Key:
Staphylococcus aureus [1] = experiment: MIC, nutrient broth dilution (Table 5); assay type: cell-based; settings: Staphylococcus aureus strain A24, sodium salt
Experimental: (§1) The relative activities of Compound (I) and Compound (C) against various intraperitioneal infections in mice evaluated by the minimum inhibitory concentrations and the means median protective doses (subcutaneously administered) are shown in Table 5.
(§2) Note: Compound (I) and Compound (C) were subjected to the test in the form of the sodium salt. For each test, five male ICR-SLC strain mice were used at each dose level. MIC was determined by the nutrient broth dilution method. In determination of PD50, subsutaneous treatment was carried out three times, i.e. 1, 3 and 5 hours after infection.

Pseudomonas aeruginosa [2] = experiment: MIC, nutrient broth dilution (Table 5); assay type: cell-based; settings: Pseudomonas aeruginosa strain TS, sodium salt
Experimental: as §1, §2

Streptococcus faecalis [3] = experiment: MIC, nutrient broth dilution (Table 5); assay type: cell-based; settings: Enterococcus faecalis, Streptococcus faecalis strain F10, sodium salt
Experimental: as §1, §2

Klebsiella pneumoniae [4] = experiment: MIC, nutrient broth dilution (Table 5); assay type: cell-based; settings: Klebsiella pneumoniae strain No. 1, sodium salt
Experimental: as §1, §2

Pseudomonas aeruginosa [5] = experiment: MIC (Table 3); assay type: cell-based; settings: Pseudomonas aeruginosa strain 104; sodium salt
Text: (§3) The minimum inhibitory concentrations obtained with Compound (I) and Compound (C) against the following organisms representing 6 genera are shown in Table 3.
(§4) Note: Compound (I) and Compound (C) were subjected to the test in the form of the sodium salt.

Proteus vulgaris [6] = experiment: MIC (Table 3); assay type: cell-based; settings: Proteus vulgaris strain HX19; sodium salt
Text: as §3, §4

Proteus mirabilis = experiment: MIC (Table 3); assay type: cell-based
Text: as §3, §4

Klebsiella pneumoniae [7] = experiment: MIC (Table 3); assay type: cell-based; settings: Klebsiella pneumoniae strain PCI602; sodium salt
Text: as §3, §4

[8] = Protein-binding rate in human serum (Table 6); assay type: in vitro ADME; settings: for fraction unbound: human, serum, sodium salt
Text: The following data are related to the pharmacokinetic profiles of Compound (I) compared with Compound (C).
as §4

Pseudomonas aeruginosa [9] = experiment: MIC, nutrient broth dilution (Table 2); assay type: cell-based
Experimental: (§5) Note: Compound (I), Compound (A) and Compound (B) were subjected to the test in the form of the sodium salt. For each test, eight male ICR-SLC strain mice were used at each dose level. MIC was determined by the nutrient broth dilution method. In determination of PD50, subcutaneous treatment was carried out twice, i.e. 1 and 4 hours after infection.

Escherichia coli = experiment: MIC, nutrient broth dilution (Table 2); assay type: cell-based
Experimental: as §5

Klebsiella pneumoniae [10] = experiment: MIC, nutrient broth dilution (Table 2); assay type: cell-based
Experimental: as §5

Staphylococcus aureus [11] = experiment: Median MIC, clinical isolates, agar-plate dilution (Table 4); assay type: cell-based
Experimental: (§6) Note: Compound (I) and Compound (C) were subjected to the test in the form of the sodium salt. MIC was determined using the agar-plate dilution method.

Streptococcus faecalis [12] = experiment: as above; assay type: cell-based
Experimental: as §6

[13] = Acute toxicity in mice, intraperitoneal (Table 9); settings: mouse, in vivo, ip
Text: The acute toxicity of Compound (I) and Compound (C) in ICR strain mice when administered by intraperitoneal route are shown in Table 9.
as §4

Staphylococcus aureus [14] = experiment: Median MIC, clinical isolates, agar-plate dilution (Table 1); assay type: cell-based; settings: 37 clinical isolates, sodium salt, read-out: Median minimum inhibitory concentration
Experimental: (§7) Note: Compound (I) and Compound (A) were subjected to the test in the form of the sodium salt. The minimum inhibitory concentration (MIC) was determined using the agar-plate dilution method recommended by Japan Society of Chemotherapy.

Proteus morganii = experiment: as above; assay type: cell-based
Experimental: as §7

Pseudomonas aeruginosa [15] = experiment: as above; assay type: cell-based; settings: 49 clinical isolates, sodium salt, read-out: Median minimum inhibitory concentration
Experimental: as §7

Serratia = experiment: as above; assay type: cell-based
Experimental: as §7

Escherichia = experiment: as above; assay type: cell-based; settings: read-out: Median minimum inhibitory concentration
Experimental: as §7

Proteus vulgaris [16] = experiment: as above; assay type: cell-based
Experimental: as §7

Enterobacter aerogenes = experiment: as above; assay type: cell-based
Experimental: as §7

Klebsiella pneumoniae [17] = experiment: as above; assay type: cell-based
Experimental: as §7

[18] = pain when administered parenterally; assay type: in vivo; settings: relative to said penicillins
[19] = solubility in pharmaceutical diluents; assay type: physicochemical; settings: e.g. water; relative to said penicillins
[20] = Urinary excretion rate in rats after intramuscular administration (Table 8); assay type: in vivo, Wistar-HLA strain rats; settings: rat, urine, im, 20 mg/kg, male rats, intramuscular 20 mg/kg, sodium salt
Experimental: The urinary excretion rates of Compound (I) and Compound (C) following an intramuscular administration of 20 mg/kg in male Wistar-HLA strain rats are shown in Table 8.
as §4

[21] = Serum level in mice after subcutaneous administration (Table 7); assay type: in vivo, ICR-SLC strain mice; settings: mouse, sc, subcutaneous 50 mg/kg, sodium salt
Experimental: The peak serum concentrations of Compound (I) and Compound (C) in ICR strain mice following subcutaneous administration at 50 mg/kg are shown in Table 7.
Note: Compound (I) and Compound (C) were subjected to the test in the form of the sodium salt. For the test, three male ICR-SLC strain mice were used. The bioassay was carried out according to the disc method using Bacillus subtilis.

In the case of `CC1(C)S[C@@H]2[C@H](NC(=O)[C@H](NC(=O)c3ccnnc3O)c3ccc(O)cc3)C(=O)N2[C@H]1C(=O)O` [Compound (I), 6-[D-2-(3-hydroxypyridazine-4-carbonamido)-2-(p-hydroxyphenyl)acetamido]penicillanic acid], the MIC (Staphylococcus aureus [1]) is reported as 0.39 µg/mL, the MIC (Pseudomonas aeruginosa [2]) is reported as 6.25 µg/mL and the MIC (Streptococcus faecalis [3]) is reported as 1.56 µg/mL. It also gave an MIC (Klebsiella pneumoniae [4]) of 6.25 µg/mL, an MIC (Pseudomonas aeruginosa [5]) of 1.56 µg/mL and an MIC (Proteus vulgaris [6]) of 0.025 µg/mL. The “antibacterial activity relative to Compound (C)” value (Proteus mirabilis; Proteus mirabilis) was “inferior”, the MIC (Proteus mirabilis; Proteus mirabilis strain GN2425, sodium salt) was 6.25 µg/mL and the MIC (Klebsiella pneumoniae [7]) was 12.5 µg/mL. The “protein-binding rate relative to Compound (C)” value ([8]; human serum) was “lower protein-binding rate”, the fraction unbound ([8]; Ultracentrifugation method) was 0.4 and the fraction unbound ([8]; Ultrafiltration method) was 0.42. The MIC (Pseudomonas aeruginosa [9]; Pseudomonas aeruginosa strain NC-5, sodium salt) was 12.5 µg/mL, the MIC (Pseudomonas aeruginosa [9]; Pseudomonas aeruginosa strain T, sodium salt) was 25 µg/mL and the MIC (Escherichia coli; Escherichia coli strain NIHJ, sodium salt) was 6.25 µg/mL. The MIC (Escherichia coli; Escherichia coli strain No. 37, sodium salt) was 12.5 µg/mL, the MIC (Klebsiella pneumoniae [10]; Klebsiella pneumoniae strain No. 1, sodium salt) was 6.25 µg/mL and the MIC (Klebsiella pneumoniae [10]; Klebsiella pneumoniae strain No. 6, sodium salt) was 25 µg/mL. For the same compound, the MIC (Klebsiella pneumoniae [10]; Klebsiella pneumoniae strain No. 20, sodium salt) was 12.5 µg/mL, the MIC50 (Staphylococcus aureus [11]; 37 strains, agar-plate dilution, sodium salt, read-out: Median minimum inhibitory concentration) was 15 µg/mL and the “antibacterial activity relative to Compound (C)” value (Staphylococcus aureus [11]; clinical isolates) was “superior”. For the same compound, the MIC50 (Streptococcus faecalis [12]; Enterococcus faecalis, 23 strains, agar-plate dilution, sodium salt, read-out: Median minimum inhibitory concentration) was 2 µg/mL, the “antibacterial activity relative to Compound (C)” value (Streptococcus faecalis [12]; clinical isolates) was “superior” and the LD50 [13] was 7100 mg/kg. For the same compound, the MIC50 (Staphylococcus aureus [14]) was 13 µg/mL, the MIC50 (Proteus morganii; Morganella morganii, 14 clinical isolates, sodium salt, read-out: Median minimum inhibitory concentration) was 4.4 µg/mL and the “antibacterial activity relative to Compound (A)” value (Proteus morganii; clinical isolates) was “superior”. The MIC50 (Pseudomonas aeruginosa [15]) was 10 µg/mL, the MIC50 (Serratia; 6 clinical isolates, sodium salt, read-out: Median minimum inhibitory concentration) was 31 µg/mL and the “antibacterial activity relative to Compound (A)” value (Serratia; clinical isolates) was “superior”. For the same compound, the MIC50 (Escherichia) was 12 µg/mL (≈ 24.6 µM), the MIC50 (Proteus vulgaris [16]; 7 clinical isolates, sodium salt, read-out: Median minimum inhibitory concentration) was 8.8 µg/mL and the “antibacterial activity relative to Compound (A)” value (Proteus vulgaris [16]; clinical isolates) was “superior”. The MIC50 (Enterobacter aerogenes; Klebsiella aerogenes, 8 clinical isolates, sodium salt, read-out: Median minimum inhibitory concentration) was 25 µg/mL, the “antibacterial activity relative to Compound (A)” value (Enterobacter aerogenes; clinical isolates) was “superior” and the MIC50 (Klebsiella pneumoniae [17]; 26 clinical isolates, sodium salt, read-out: Median minimum inhibitory concentration) was 21 µg/mL. For the same compound, the “antibacterial activity relative to Compound (A)” value (Klebsiella pneumoniae [17]; clinical isolates) was “superior”, the “pain when administered parenterally” value [18] was “weaker pain” and the “solubility in pharmaceutical diluents” value [19] was “higher solubility”. The dose excreted at 6 h ([20]; 0-6 hr.) was 54%, the dose excreted at 24 h ([20]; 0-24 hr.) was 55% and the dose excreted at 24 h ([20]; 6-24 hr.) was 1%. For the same compound, the concentration at 0.5 h ([21]; 1/2 hr.) was 35000 ng/mL, the concentration at 0.25 h ([21]; 1/4 hr.) was 69000 ng/mL and the concentration at 1 h ([21]; 1 hr.) was 14000 ng/mL. The concentration at 2 h ([21]; 2 hr.) was 3000 ng/mL.

— US4046904A, “Novel penicillin, and its preparation and use” (Sumitomo Chemical Company, Limited, priority 1975, dated 1977)
